Consider 1 compound from patent publication US20220232869A1, “Steviol Glycoside Sweeteners with Improved Flavor Profiles” (The Coca-Cola Company, priority 2015, published 2022).

The experiment is described as follows: Sensory evaluation of 5 Brix and 10 Brix acidified water beverages by 15 panelists. It counts as in vivo. Also on record: Astringency / Acidity / Sweet Aftertaste / Bitter Aftertaste / Overall Liking / Sweetness / Bitterness: scale not given here. The note with it: panel score. The protocol: 5 Brix and 10 Brix beverages were prepared by combining purified water containing 303 ppm citric acid and a sweetener. The 5 Brix beverages contained one of the following sweeteners: (i) 5% (wt/wt) sugar, (ii) 200 ppm A95 or (iii) 200 ppm of a 70 wt % Reb D/30 wt % Reb M blend. The 10 Brix beverages contained one of the following sweeteners: (i) 10% (wt/wt) sugar, (ii) 900 ppm A95 or (iii) 900 ppm of a 70 wt % Reb D/30wt % Reb M blend.
The beverages were served at room temperature in 2 oz clear plastic sample cups. 15 panelists evaluated the beverages for various tastes and flavors. Prior to sample evaluation, all panelists rinsed their palate with warm water. The assessors were instructed to take a sip of each beverage and rate the mouth feel and taste/flavor characteristics. 15 seconds after ingestion panelists were instructed to rate sweetness linger and aftertaste. Between samples evaluation a 1 minute rest period was allowed during which they rinsed their palate with warm water and 0.25% NaCl solution.
The various tastes and flavors measured in the evaluation are defined as follows: […]

The mark [1] stands for this setting: 5 brix target, 5% sugar, 200 ppm A95 or 200 ppm blend.
Setting [2] is: 10 brix target, 10% sugar, 900 ppm A95 or 900 ppm blend.

Take `OC[C@H]1O[C@@](CO)(O[C@H]2O[C@H](CO)[C@@H](O)[C@H](O)[C@H]2O)[C@@H](O)[C@@H]1O` [Sugar]: under setting [1], the Acidity was found to be 0.99, the Astringency amounted to 0.84, the “Bitter Aftertaste” value was 0.33 and the Bitterness is 0.75. Under setting [1], the “Off-Note (Metallic/Licorice)” value is 0.52, the “Overall Liking” value is given as 4.96, the “Sweet Aftertaste” value is on record as 0.56 and the Sweetness stood at 4.91. Under setting [2], the Acidity stood at 1.08, the Astringency came out at 0.92, the “Bitter Aftertaste” value is recorded as 0.37 and the Bitterness turned out to be 0.55. Also, under setting [2], the “Off-Note (Metallic/Licorice)” value was found to be 0.51, the “Overall Liking” value was 6.34, the “Sweet Aftertaste” value came to 1.08 and the Sweetness was found to be 8.45.
